Results reported in US20260166162A1, “CARBON CHAIN SUBSTANCE FOR REGULATING TRANSMEMBRANE TRANSPORT AND FLUIDITY OF CELL MEMBRANES, AND PREPARATION AND USE THEREOF” (priority 2022, published 2026).
Several values for one entry are separate records, joined by “and”; a condition that tells them apart may be missing. Equal entries are not always repeated. Where two headings read alike, the source gives them in different places.

How the values were obtained:
293T cells = assay: Cellular phagocytosis of DiD-loaded lipid vesicles (nano-drugs) by 293T cells (Example II-51, Table II-29); format: cell-based; details: 293T cells pretreated 4 h, DiD lipid vesicles 2 h, n=3, untreated control 226.46 ± 1.26
Neocopyovirus = format: in vivo; details: 1 mM; n=3
Hela cells = assay: Cell membrane fluidity (Laurdan fluorescence recovery) in Hela cells; format: cell-based
[1] = test system: HPV pseudovirus (HPV6-GFP); format: cell-based; details: 293FT cells pretreated 4 h, n=3
[2] = test system: SARS-CoV-2 pseudovirus (B.1.526.2); format: cell-based
[3] = test system: influenza pseudovirus H7N9-Fluc; assay: microbe, parasite or virus in culture; format: cell-based; details: n=3
HIV pseudovirus (18A-41) = format: cell-based; details: 293T cells pretreated 4 h, n=3
[4] = 100 μM, negative value = promotes infection

O=C(O)CCCCCCC(=O)O [octanedioic acid] gave a Fluorescence intensity (293T cells; 2 nM) of 108.61 ± 5.68, a Fluorescence intensity (293T cells; 5 nM) of 68.71 ± 4.36 and a Fluorescence intensity (293T cells; 10 nM) of 68.98 ± 8.56. For the same compound, the Fluorescence intensity (293T cells; 50 nM) was 50.66 ± 5.66, the Fluorescence intensity (293T cells; 100 nM) was 44.30 ± 6.35 and the Fluorescence intensity (293T cells; 1 uM) was 215.30 ± 5.36. For the same compound, the Fluorescence intensity (293T cells; 10 uM) was 349.34 ± 9.48, the Fluorescence intensity (293T cells; 50 uM) was 21.83 ± 1.85 and the Fluorescence intensity (293T cells; 100 uM) was 2.79 ± 0.22. The Fluorescence intensity (Neocopyovirus) was 2.9 ± 0.22, the “Fluorescence recovery rate %” value (Hela cells; 2 nM, 20 s) was 63.58% and the “Fluorescence recovery rate %” value (Hela cells; 2 nM, 40 s) was 64.25%. For the same compound, the “Fluorescence recovery rate %” value (Hela cells; 2 nM, 60 s) was 65.77%, the “Fluorescence recovery rate %” value (Hela cells; 2 nM, 80 s) was 65.12% and the “Fluorescence recovery rate %” value (Hela cells; 5 nM, 20 s) was 64.56%. For the same compound, the “Fluorescence recovery rate %” value (Hela cells; 5 nM, 40 s) was 64.88%, the “Fluorescence recovery rate %” value (Hela cells; 5 nM, 60 s) was 64.78% and the “Fluorescence recovery rate %” value (Hela cells; 5 nM, 80 s) was 65.09%. The “Fluorescence recovery rate %” value (Hela cells; 10 nM, 20 s) was 63.99%, the “Fluorescence recovery rate %” value (Hela cells; 10 nM, 40 s) was 64.23% and the “Fluorescence recovery rate %” value (Hela cells; 10 nM, 60 s) was 64.45%. For the same compound, the “Fluorescence recovery rate %” value (Hela cells; 10 nM, 80 s) was 64.66%, the “Fluorescence recovery rate %” value (Hela cells; 50 nM, 20 s) was 66.09% and the “Fluorescence recovery rate %” value (Hela cells; 50 nM, 40 s) was 66.42%. For the same compound, the “Fluorescence recovery rate %” value (Hela cells; 50 nM, 60 s) was 66.89%, the “Fluorescence recovery rate %” value (Hela cells; 50 nM, 80 s) was 67.94% and the “Fluorescence recovery rate %” value (Hela cells; 50 μM, 20 s) was 64.41%. The “Fluorescence recovery rate %” value (Hela cells; 50 μM, 40 s) was 70.05%, the “Fluorescence recovery rate %” value (Hela cells; 50 μM, 60 s) was 74.65% and the “Fluorescence recovery rate %” value (Hela cells; 50 μM, 80 s) was 80.36%. The “Fluorescence recovery rate %” value (Hela cells; 100 μM, 20 s) was 65.77%, the “Fluorescence recovery rate %” value (Hela cells; 100 μM, 40 s) was 71.36% and the “Fluorescence recovery rate %” value (Hela cells; 100 μM, 60 s) was 76.81%. For the same compound, the “Fluorescence recovery rate %” value (Hela cells; 100 μM, 80 s) was 79.79%.

For Adenosine-erucic acid [Adenosine-C22-1], the Fluorescence intensity (293T cells; 2 nM) was 112.01 ± 8.24 and 99.55 ± 5.66, the Fluorescence intensity (293T cells; 5 nM) was 89.09 ± 4.19 and 46.06 ± 5.06 and the Fluorescence intensity (293T cells; 1 uM) was 278.16 ± 8.15 and 299.00 ± 23.21. For the same compound, the Fluorescence intensity (293T cells; 10 uM) was 326.69 ± 10.13 and 171.00 ± 14.23, the “Inhibition rate (%)” value ([1]; 2 nM) was 80.11 ± 3.66% and the “Inhibition rate (%)” value ([1]; 5 nM) was 85.69 ± 4.23%. For the same compound, the “Inhibition rate (%)” value ([1]; 10 nM) was 90.35 ± 4.69%, the “Inhibition rate (%)” value ([1]; 50 nM) was 92.37 ± 3.35% and the “Inhibition rate (%)” value ([1]; 100 nM) was 94.75 ± 1.67%. For the same compound, the “Inhibition rate (%)” value ([1]; 1 μM) was 32.83 ± 2.37%, the “Inhibition rate (%)” value ([1]; 10 μM) was 54.26 ± 1.83% and the “Inhibition rate (%)” value ([1]; 50 μM) was 91.84 ± 3.95%. The “Inhibition rate (%)” value [1, 4] was 94.11 ± 2.69%, the “Inhibition rate (%)” value ([2]; 0.002 µM) was 50.54 ± 1.57% and the “Inhibition rate (%)” value ([2]; 0.005 µM) was 60.66 ± 1.59%. For the same compound, the “Inhibition rate (%)” value ([2]; 0.01 µM) was 58.34 ± 1.25%, the “Inhibition rate (%)” value ([2]; 0.05 µM) was 57.33 ± 1.58% and the “Inhibition rate (%)” value ([2]; 0.1 µM) was 64.66 ± 8.23%. For the same compound, the “Inhibition rate (%)” value ([2]; 1 µM) was -22.83 ± 0.93%, the “Inhibition rate (%)” value ([2]; 10 µM) was -44.26 ± 1.26% and the “Inhibition rate (%)” value ([2]; 50 µM) was 81.44 ± 0.54%. For the same compound, the “Inhibition rate (%)” value ([2]; 100 µM) was 90.08 ± 1.21%.

Compound Ascorbic acid-eicosapentaenoic acid has a Fluorescence intensity (Neocopyovirus) of 2.9 ± 0.68.

In the case of Glucosamine-docosahexaenoic acid, the Fluorescence intensity (Neocopyovirus) is reported as 3.1 ± 0.65.

Glucosamine-erucic acid was tested, and the Fluorescence intensity (Neocopyovirus) was 6.8 ± 0.49, the “Inhibition rate (%)” value ([3]; 2 nM) was 50.54 ± 3.54% and the “Inhibition rate (%)” value ([3]; 5 nM) was 39.66 ± 3.66%. The “Inhibition rate (%)” value ([3]; 10 nM) was 48.04 ± 7.56%, the “Inhibition rate (%)” value ([3]; 50 nM) was 47.33 ± 4.56% and the “Inhibition rate (%)” value ([3]; 100 nM) was 53.86 ± 3.98%. The “Inhibition rate (%)” value ([3]; 1 μM) was 12.07 ± 2.65%, the “Inhibition rate (%)” value ([3]; 10 μM) was 54.05 ± 5.05% and the “Inhibition rate (%)” value ([3]; 50 μM) was 91.44 ± 4.48%. The “Inhibition rate (%)” value ([3]; 100 μM) was 99.78 ± 5.64%.

With Threonine-tetracosanoic acid the Fluorescence intensity (Neocopyovirus) was 2.9 ± 0.11, the “Inhibition rate (%)” value (HIV pseudovirus (18A-41); 2 nM) was 81.01 ± 5.26% and the “Inhibition rate (%)” value (HIV pseudovirus (18A-41); 5 nM) was 92.25 ± 5.03%. The “Inhibition rate (%)” value (HIV pseudovirus (18A-41); 10 nM) was 94.06 ± 6.46%, the “Inhibition rate (%)” value (HIV pseudovirus (18A-41); 50 nM) was 99.01 ± 6.33% and the “Inhibition rate (%)” value (HIV pseudovirus (18A-41); 100 nM) was 98.64 ± 5.77%. For the same compound, the “Inhibition rate (%)” value (HIV pseudovirus (18A-41); 1 μM) was -42.03 ± 3.83%, the “Inhibition rate (%)” value (HIV pseudovirus (18A-41); 10 μM) was -64.26 ± 6.54% and the “Inhibition rate (%)” value (HIV pseudovirus (18A-41); 50 μM) was 81.96 ± 6.75%. The “Inhibition rate (%)” value (HIV pseudovirus (18A-41); [4]) was 83.84 ± 3.84%.
